Results as given in patent US4568689A, “Pharmaceutical preparation for the treatment of hypertensive disease and myocardial infarction” (priority 1983, dated 1986).
“Also recorded” adds a separate entry of the source.

Columns and labels:
[1] = system: neoepinephrine model of infarction (focal necrosis) of myocardium in rats; assay: survival of rats with the neoepinephrine model of infarction; assay type: in vivo, rats of the Wistar line; details: 25 mg/kg subcutaneously, 7 days; for Percentage of survival: after 19 days; for Number of survived animals after 19 days: groups initially 12 animals
Experimental: The study of the effect produced by the preparation according to the present invention on survival of animals with a neoepinephrine model of infarction was effected in comparison with the prior art preparations--obzidan and finoptin.
The formation of a neoepinephrine model of infarction (focal necrosis) of myocardium in rats was effected by way of an every-day subcutaneous administration of a 0.1% solution of neoepinephrine in the dose of 3 mg/kg for 7 days to rats of the Wistar line with a mass of 160-200 g. The test preparations were subcutaneously administered to the rats in the form of a 1.25% aqueous solution in the dose of 25 mg/kg 0.5 hour after injection of neoepinephrine also for 7 days.

[2] = background; cited from earlier work
[3] = system: experimental necrosis of myocardium caused by introduction of adrenaline; assay: histological analysis of experimental necrosis of myocardium caused by adrenaline; assay type: in vivo, rats of the Wistar line; details: for changes in cardiomyocytes / changes in interstitial tissue / changes in vessels: 25 mg/kg
Experimental: A comparative study of the effects produced by the preparation according to the present invention and finoptin on an experimental necrosis of myocardium caused by introduction of adrenaline.
The experiments were carried out on rats of the Wistar line of gregarious keeping, both sexes, with a mass of 170 to 225 g. Each preparation was studied on a separate group of animals: (group of adrenaline-control, group of finoptin, group of the preparation according to the present invention). 72 rats were used in the experiments altogether. Injuries of myocardium were caused by way of a single-time subcutaneous administration of a 0.1% solution of adrenaline hydrochloride in the dose of 3 mg per kg of the rat's bodyweight. […] The preparation of this invention was administered subcutaneously, finoptin-per os. On the first day of the experiment the preparations were administered 30 minutes after injection of adrenaline hydrochloride. The experiment lasted for 19 days. Slaughters were effected on the 4th, 8th, 12th and 19th day of the experiment. The animals were decapitated. The heart was fixed in a 10% solution of neutral formalin and sealed in paraffin. Serial sections with the thickness of 5-6μ were coloured by Ehrlich hematoxylin-eosin. The state of vessels of myocardium, cardiomyocytes and interstitial tissue were evaluated by histological analysis.

[4] = system: arterial pressure of spontaneously hypertensive rats; assay: effect of the oral form on arterial pressure, spontaneously hypertensive rats; assay type: in vivo; details: 10 mg/kg
[5] = system: arterial pressure of rats with spontaneous hypertension; assay: hypotensive effect, intraperitoneal, spontaneously hypertensive rats; assay type: in vivo
Experimental: The study of the hypotensive effect was carried out in experiments on spontaneously hypertensive male rats of the Akamoto-Aoki line aged 20-25 weeks. The prior art preparation-nifedipine was used for the purpose of comparison. The measurement of the arterial pressure was effected on the tail vein of the rats by the indirect method. The animals were divided into groups (10 in each) and trained for two weeks with the view to ensure their adaptation to the unit for the measurement of the arterial pressure. The level of the arterial pressure prior to administration of the test preparations was measured three times: two days, one day and directly prior to administration of the test preparations. The preparation was administered in the form of a 2.5% aqueous solution, nifedipine--in the form of a 2.5% suspension in Twin-80 intraperitoneally. […]

[6] = background; cited from earlier work; remark: listed apart in the source
[7] = 4th day, grade/number of animals (6)
[8] = 8th day, grade/number of animals (6)
[9] = 12th day, grade/number of animals (6)
[10] = 19th day, grade/number of animals (5)
[11] = 1 mg/kg intraperitoneally, 30 minutes
[12] = 1 mg/kg intraperitoneally, 1 hour
[13] = 1 mg/kg intraperitoneally, 2 hours
[14] = 1 mg/kg intraperitoneally, 4 hours
[15] = 1 mg/kg intraperitoneally, 24 hours

With `CC(C)NCC(O)COc1cccc2ccccc12` (stereo not drawn) [Obzidan] the Percentage of survival [1] was 50% and the “Number of survived animals after 19 days” value [1] was 6.
For `CC(C)NCC(O)COc1cccc2ccccc12` (stereo not drawn) [inderal], the inotropic effect [2] is given as “negative inotropic effect”.
In the case of `C=CCOc1ccccc1OCC(O)CNC(C)C` (stereo not drawn) [oxyprenolol], the inotropic effect [2] is given as “negative inotropic effect”.
For `COc1ccc(CCN(C)CCCC(C#N)(c2ccc(OC)c(OC)c2)C(C)C)cc1OC` (stereo not drawn) [Finoptin, reference compound], the “changes in cardiomyocytes” value ([3]; 4th day) was “Necrosis and eosinophilia, as well as contracture alterations of muscular cells are observed in a half of the studied animals”, the “changes in interstitial tissue” value ([3]; 4th day) was “edema is decreased, in a half of the animals a diffusive round-cell infiltration is observed, the formation of granulomae is similar to that of the animals of the control group” and the “changes in vessels” value ([3]; 4th day) was “injuries of the vascular system are less clearly pronounced as compared to adrenaline; non-uniform distribution of endothelium and infiltration of adventita of arteries with lymphoid cells are insignificant”. For the same compound, the “necrobiotic regions in the wall” value [3, 7] was 0/6, the “necrosis of more than 5 cells” value [3, 7] was 0/6 and the “wall necrosis (vessels)” value [3, 7] was 0/6. For the same compound, the “changes in cardiomyocytes” value ([3]; 8th day) was “granular-lumpy decomposition, eosinophilia and contructure type pathology are more pronounced than in the group of animals administered with the preparation according to the present invention, but less pronounced as compared to the control group (adrenaline)”, the “changes in interstitial tissue” value ([3]; 8th day) was “a more intensive growth of the scarring tissue is observed as compared to the group of animals administered with the preparation according to the present invention and an insignificant decrease as compared to the control group (adrenaline)” and the diffusive round-cell infiltration [3, 8] was 0/6. For the same compound, the “edema (interstitial tissue)” value [3, 8] was 0/6, the “necrobiotic regions in the wall” value [3, 8] was 0/6 and the “necrosis of more than 5 cells” value [3, 8] was 0/6. For the same compound, the “nuclei (pyknosis)” value [3, 8] was 0/6, the “plethora of the vessels” value [3, 8] was 0/6 and the “wall necrosis (vessels)” value [3, 8] was 0/6. The “changes in cardiomyocytes” value ([3]; 12th day) was “Eosinophilia is retained and the contructure type changes are more clearly pronounced than in the group administered with the preparation according to the present invention”, the “changes in interstitial tissue” value ([3]; 12th day) was “an intensive formation of the scarring tissue occurs more noticeably than in the group of animals administered with the preparation according to the present invention” and the “changes in vessels” value ([3]; 12th day) was “certain changes are observed on the part of endothelial cells (swelling)”. For the same compound, the “Nuclei (pykhnosis)” value [3, 9] was 0/6, the diffusive round-cell infiltration [3, 9] was 0/6 and the “edema (interstitial tissue)” value [3, 9] was 0/6. The “infiltration of the adventitia with lymphoid cells” value [3, 9] was 0/5, the “necrobiotic regions with changes in the vessel wall” value [3, 9] was 0/6 and the “necrosis of more than 5 cells” value [3, 9] was 0/6. The “plethora of the vessels” value [3, 9] was 0/6, the “wall necrosis (vessels)” value [3, 9] was 0/6 and the “changes in cardiomyocytes” value ([3]; 19th day) was “By the 19th day these changes are getting less noticeable; also recorded: In half of the animals a moderately pronounced granular-lumpy decomposition is retained along with eosinophilia, cell necroses and contructure type changes”. For the same compound, the “changes in vessels” value ([3]; 19th day) was “no changes are detected on the part of the coronary vessels”, the “infiltration of the adventitia with lymphoid cells” value [3, 10] was 0/5 and the “necrobiotic regions with changes in the vessel wall” value [3, 10] was 0/5. The “necrosis of more than 5 cells” value [3, 10] was 0/5, the “nuclei (pyknosis)” value [3, 10] was 0/5 and the “plethora of the vessels” value [3, 10] was 0/5. The Percentage of survival [1] was 50% and the “Number of survived animals after 19 days” value [1] was 6.
In the case of `COC(=O)C1=C(C)NC(C)=C(C(=O)OC)C1c1ccccc1[N+](=O)[O-]` [Nifedipine, reference compound], the “Variation of arterial pressure, diastolic” value (“Variation … diastolic” for short) ([4]; 30 minutes) is reported as -14 % of the initial, the “Variation of arterial pressure, systolic” value ([4]; 30 minutes) is reported as -10 % of the initial and the “Variation … diastolic” value ([4]; 1 hour) is reported as -18 % of the initial. The “Variation of arterial pressure, systolic” value ([4]; 1 hour) was -14 % of the initial, the “Variation … diastolic” value ([4]; 2 hours) was -16 % of the initial and the “Variation of arterial pressure, systolic” value ([4]; 2 hours) was -10 % of the initial. The “Variation … diastolic” value ([4]; 4 hours) was -20 % of the initial, the “Variation of arterial pressure, systolic” value ([4]; 4 hours) was -18 % of the initial and the “Variation … diastolic” value ([4]; 24 hours) was 0 % of the initial. For the same compound, the “Variation of arterial pressure, systolic” value ([4]; 24 hours) was 0 % of the initial, the “Variation … diastolic” value [5, 11] was -8 % of the initial and the “Variation of arterial pressure, systolic” value [5, 11] was -4 % of the initial. For the same compound, the “lowering of diastolic pressure” value [5, 11] was 7.6%, the “lowering of systolic pressure” value [5, 11] was 4.3% and the “Variation … diastolic” value [5, 12] was -14 % of the initial. For the same compound, the “Variation of arterial pressure, systolic” value [5, 12] was -11 % of the initial, the “Variation … diastolic” value [5, 13] was -21 % of the initial and the “Variation of arterial pressure, systolic” value [5, 13] was -8 % of the initial. For the same compound, the “Variation … diastolic” value [5, 14] was -31 % of the initial, the “Variation of arterial pressure, systolic” value [5, 14] was -11 % of the initial and the “Variation … diastolic” value [5, 15] was 0 % of the initial. For the same compound, the “Variation of arterial pressure, systolic” value [5, 15] was 0 % of the initial, the “effect upon expiration of 8 hours” value ([5]; 8 hours) was “substantially discontinued” and the duration of effect [6] was at most 8 h.
